Measurements from US6479435B1, “Diaryl ethers and processes for their preparation and herbicidal and desiccant compositions containing them” (ISK Americas Incorporated, priority 1997, dated 2002).

Legend:
Assay type in all cases: in vivo
[1] = tested on: soybean (Glycine max L., var. Pella 86, SOY); test: Pre-emerge greenhouse test, crop damage rating; conditions: 14 days after application, rating scale 0-100
How it was run: (§1)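 Seeds sown in sandy loam mix one day before track-sprayer application of compounds in acetone at 125–1000 g ai/ha (187 l/ha), then surface-watered to incorporate and bottom-watered. Visual rating 14 days after application on a 0–100 scale (0 = no damage, 100 = all plants dead).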

[2] = tested on: field corn (Zea mays L., var. Dekalb 535, CORN); test: Pre-emerge greenhouse test, crop damage rating; conditions: 14 days after application, rating scale 0-100
How it was run: as §1

[3] = tested on: upland rice (Oryza sp., var.Tebonnet, RICE); test: Pre-emerge greenhouse test, crop damage rating; conditions: 14 days after application, rating scale 0-100
How it was run: as §1

[4] = tested on: sicklepod (Cassia obtusifolia, CASOB); test: Post-emerge greenhouse herbicide test, phytotoxicity rating; conditions: 14 days after application
How it was run: (§2)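 Compounds in acetone with 0.25% v/v non-ionic surfactant were track-sprayed at 187 l/ha over plants at the 2-3 leaf stage, at 63 to 1000 g ai/ha. Pots were bottom-watered. Injury was scored visually 14 days later on a 0-100 scale, where 0 is no damage and 100 is complete plant death.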

[5] = tested on: large crabgrass (Digitaria sanguinalis, DIGSA); test: as above; conditions: 14 days after application
How it was run: as §2

[6] = tested on: Johnsongrass (Sorghum halepense, SORHA); test: as above; conditions: 14 days after application
How it was run: as §2

[7] = tested on: barnyardgrass (Echinochloa crusgalli, ECHCG); test: as above; conditions: 14 days after application
How it was run: as §2

[8] = tested on: ivyleaf morningglory (Ipomoea hederacea, IPOHE); test: as above; conditions: 14 days after application
How it was run: as §2

[9] = tested on: redroot pigweed (Amaranthus retroflexus, AMARE); test: as above; conditions: 14 days after application
How it was run: as §2

[10] = tested on: velvetleaf (Abutilon theophrasti, ABUTH); test: as above; conditions: 14 days after application
How it was run: as §2

[11] = tested on: lambsquarters (Chenopodium album, CHEAL); test: as above; conditions: 14 days after application
How it was run: as §2

[12] = tested on: green foxtail (Setaria viridis, SETVI); test: as above; conditions: 14 days after application
How it was run: as §2

[13] = tested on: sicklepod (Cassia obtusifolia, CASOB); test: Pre-emerge greenhouse herbicide test, phytotoxicity rating; conditions: 14 days after application, rating scale 0-100
How it was run: as §1

[14] = tested on: large crabgrass (Digitaria sanguinalis, DIGSA); test: as above; conditions: 14 days after application, rating scale 0-100
How it was run: as §1

[15] = tested on: Johnsongrass (Sorghum halepense, SORHA); test: as above; conditions: 14 days after application, rating scale 0-100
How it was run: as §1

[16] = tested on: barnyardgrass (Echinochloa crusgalli, ECHCG); test: as above; conditions: 14 days after application, rating scale 0-100
How it was run: as §1

[17] = tested on: ivyleaf morningglory (Ipomoea hederacea, IPOHE); test: as above; conditions: 14 days after application, rating scale 0-100
How it was run: as §1

[18] = tested on: redroot pigweed (Amaranthus retroflexus, AMARE); test: as above; conditions: 14 days after application, rating scale 0-100
How it was run: as §1

[19] = tested on: common ragweed (Ambrosia artemisiifolia L., AMBEL); test: as above; conditions: 14 days after application, rating scale 0-100
How it was run: as §1

[20] = tested on: velvetleaf (Abutilon theophrasti, ABUTH); test: as above; conditions: 14 days after application, rating scale 0-100
How it was run: as §1

[21] = tested on: lambsquarters (Chenopodium album, CHEAL); test: as above; conditions: 14 days after application, rating scale 0-100
How it was run: as §1

[22] = tested on: green foxtail (Setaria viridis, SETVI); test: as above; conditions: 14 days after application, rating scale 0-100
How it was run: as §1

[23] = tested on: common ragweed (Ambrosia artemisiifolia L., AMBEL); test: Post-emerge greenhouse herbicide test, phytotoxicity rating; conditions: 14 days after application
How it was run: as §2

[24] = tested on: field corn (Zea mays L., var. Dekalb 535, CORN); test: Post-emerge greenhouse test, crop damage rating; conditions: 14 days after application
How it was run: as §2

[25] = tested on: upland rice (Oryza sp., var.Tebonnet, RICE); test: Post-emerge greenhouse test, crop damage rating; conditions: 14 days after application
How it was run: as §2

[26] = tested on: soybean (Glycine max L., var. Pella 86, SOY); test: Post-emerge greenhouse test, crop damage rating; conditions: 14 days after application
How it was run: as §2

CN1CC(=O)N(c2cc(Oc3ncccn3)c(Cl)cc2F)C1=O [Compound 8-3]
crop damage rating SOY ([1]; 125 g ai/ha): 0
crop damage rating SOY ([1]; 500 g ai/ha): 10
crop damage rating CORN ([2]; 125 g ai/ha): 0
crop damage rating CORN ([2]; 500 g ai/ha): 5
crop damage rating RICE ([3]; 125 g ai/ha): 0
crop damage rating RICE ([3]; 500 g ai/ha): 30
CASOB phytotoxicity rating (0-100) ([4]; 63 g al/ha): 0
CASOB phytotoxicity rating (0-100) ([4]; 500 g al/ha): 0
DIGSA phytotoxicity rating (0-100) ([5]; 63 g al/ha): 0
DIGSA phytotoxicity rating (0-100) ([5]; 500 g al/ha): 0
SORHA phytotoxicity rating (0-100) ([6]; 63 g al/ha): 0
SORHA phytotoxicity rating (0-100) ([6]; 500 g al/ha): 0
ECHCG phytotoxicity rating (0-100) ([7]; 63 g al/ha): 0
ECHCG phytotoxicity rating (0-100) ([7]; 500 g al/ha): 0
IPOHE phytotoxicity rating (0-100) ([8]; 63 g al/ha): 60
IPOHE phytotoxicity rating (0-100) ([8]; 500 g al/ha): 90
AMARE phytotoxicity rating (0-100) ([9]; 63 g al/ha): 20
AMARE phytotoxicity rating (0-100) ([9]; 500 g al/ha): 75
ABUTH phytotoxicity rating (0-100) ([10]; 63 g al/ha): 10
ABUTH phytotoxicity rating (0-100) ([10]; 500 g al/ha): 75
CHEAL phytotoxicity rating (0-100) ([11]; 63 g al/ha): 50
CHEAL phytotoxicity rating (0-100) ([11]; 500 g al/ha): 85
SETVI phytotoxicity rating (0-100) ([12]; 63 g al/ha): 0
SETVI phytotoxicity rating (0-100) ([12]; 500 g al/ha): 0
phytotoxicity rating CASOB ([13]; 125 g ai/ha): 0
phytotoxicity rating CASOB ([13]; 500 g ai/ha): 0
phytotoxicity rating DIGSA ([14]; 125 g ai/ha): 0
phytotoxicity rating DIGSA ([14]; 500 g ai/ha): 90
phytotoxicity rating SORHA ([15]; 125 g ai/ha): 0
phytotoxicity rating SORHA ([15]; 500 g ai/ha): 40
phytotoxicity rating ECHCG ([16]; 125 g ai/ha): 0
phytotoxicity rating ECHCG ([16]; 500 g ai/ha): 10
phytotoxicity rating IPOHE ([17]; 125 g ai/ha): 10
phytotoxicity rating IPOHE ([17]; 500 g ai/ha): 60
phytotoxicity rating AMARE ([18]; 125 g ai/ha): 10
phytotoxicity rating AMARE ([18]; 500 g ai/ha): 100
phytotoxicity rating AMBEL ([19]; 125 g ai/ha): 20
phytotoxicity rating AMBEL ([19]; 500 g ai/ha): 60
phytotoxicity rating ABUTH ([20]; 125 g ai/ha): 20
phytotoxicity rating ABUTH ([20]; 500 g ai/ha): 70
phytotoxicity rating CHEAL ([21]; 125 g ai/ha): 80
phytotoxicity rating CHEAL ([21]; 500 g ai/ha): 100
phytotoxicity rating SETVI ([22]; 125 g ai/ha): 0
phytotoxicity rating SETVI ([22]; 500 g ai/ha): 70
AMBEL phytotoxicity rating (0-100) ([23]; 63 g al/ha): 20
AMBEL phytotoxicity rating (0-100) ([23]; 500 g al/ha): 60
CORN crop damage rating (0-100) ([24]; 63 g al/ha): 0
CORN crop damage rating (0-100) ([24]; 500 g al/ha): 0
RICE crop damage rating (0-100) ([25]; 63 g al/ha): 0
RICE crop damage rating (0-100) ([25]; 500 g al/ha): 0
SOY crop damage rating (0-100) ([26]; 63 g al/ha): 10
SOY crop damage rating (0-100) ([26]; 500 g al/ha): 50

O=C1C2CCCCN2C(=O)N1c1cc(Oc2ncccc2C(F)(F)F)c(Cl)cc1F (stereo not drawn) [Compound 8-4]
crop damage rating SOY ([1]; 125 g ai/ha): 0
crop damage rating SOY ([1]; 500 g ai/ha): 0
crop damage rating CORN ([2]; 125 g ai/ha): 0
crop damage rating CORN ([2]; 500 g ai/ha): 0
crop damage rating RICE ([3]; 125 g ai/ha): 0
crop damage rating RICE ([3]; 500 g ai/ha): 30
CASOB phytotoxicity rating (0-100) ([4]; 63 g al/ha): 20
CASOB phytotoxicity rating (0-100) ([4]; 500 g al/ha): 40
DIGSA phytotoxicity rating (0-100) ([5]; 63 g al/ha): 0
DIGSA phytotoxicity rating (0-100) ([5]; 500 g al/ha): 0
SORHA phytotoxicity rating (0-100) ([6]; 500 g al/ha): 0
ECHCG phytotoxicity rating (0-100) ([7]; 63 g al/ha): 0
ECHCG phytotoxicity rating (0-100) ([7]; 500 g al/ha): 0
IPOHE phytotoxicity rating (0-100) ([8]; 63 g al/ha): 50
IPOHE phytotoxicity rating (0-100) ([8]; 500 g al/ha): 60
AMARE phytotoxicity rating (0-100) ([9]; 63 g al/ha): 60
AMARE phytotoxicity rating (0-100) ([9]; 500 g al/ha): 100
ABUTH phytotoxicity rating (0-100) ([10]; 63 g al/ha): 70
ABUTH phytotoxicity rating (0-100) ([10]; 500 g al/ha): 85
CHEAL phytotoxicity rating (0-100) ([11]; 63 g al/ha): 70
CHEAL phytotoxicity rating (0-100) ([11]; 500 g al/ha): 75
SETVI phytotoxicity rating (0-100) ([12]; 63 g al/ha): 10
SETVI phytotoxicity rating (0-100) ([12]; 500 g al/ha): 10
phytotoxicity rating CASOB ([13]; 125 g ai/ha): 30
phytotoxicity rating CASOB ([13]; 500 g ai/ha): 90
phytotoxicity rating DIGSA ([14]; 125 g ai/ha): 30
phytotoxicity rating DIGSA ([14]; 500 g ai/ha): 90
phytotoxicity rating SORHA ([15]; 500 g ai/ha): 70
phytotoxicity rating ECHCG ([16]; 125 g ai/ha): 10
phytotoxicity rating ECHCG ([16]; 500 g ai/ha): 30
phytotoxicity rating IPOHE ([17]; 125 g ai/ha): 0
phytotoxicity rating IPOHE ([17]; 500 g ai/ha): 0
phytotoxicity rating AMARE ([18]; 125 g ai/ha): 100
phytotoxicity rating AMARE ([18]; 500 g ai/ha): 100
phytotoxicity rating AMBEL ([19]; 125 g ai/ha): 20
phytotoxicity rating AMBEL ([19]; 500 g ai/ha): 0
phytotoxicity rating ABUTH ([20]; 125 g ai/ha): 100
phytotoxicity rating ABUTH ([20]; 500 g ai/ha): 100
phytotoxicity rating CHEAL ([21]; 125 g ai/ha): 70
phytotoxicity rating CHEAL ([21]; 500 g ai/ha): 100
phytotoxicity rating SETVI ([22]; 125 g ai/ha): 50
phytotoxicity rating SETVI ([22]; 500 g ai/ha): 100
AMBEL phytotoxicity rating (0-100) ([23]; 63 g al/ha): 0
AMBEL phytotoxicity rating (0-100) ([23]; 500 g al/ha): 0
CORN crop damage rating (0-100) ([24]; 63 g al/ha): 5
CORN crop damage rating (0-100) ([24]; 500 g al/ha): 10
RICE crop damage rating (0-100) ([25]; 63 g al/ha): 0
RICE crop damage rating (0-100) ([25]; 500 g al/ha): 0
SOY crop damage rating (0-100) ([26]; 63 g al/ha): 20
SOY crop damage rating (0-100) ([26]; 500 g al/ha): 30
